Counter-ions that a name gives are not always drawn. Marks after values point to notes of the source that are not given here.
Experiments:
Assay type in all cases: physicochemical
[1] = Grinding stability; conditions: ~30 mg ground manually in a mortar for about 5 minutes
[2] = DVS (dynamic vapor sorption) moisture uptake; conditions: for Moisture Uptake (DVS): 25° C.; for form change after DVS test (XRPD): XRPD before and after DVS
Procedure: (FIG. 5). Sample weight decreased rapidly when humidity decreased from 10% to 0%, which might be caused by loss of crystalline water.
DVS was measured via a SMS (Surface Measurement Systems) DVS Intrinsic.

[3] = Equilibrium solubility in pH buffers (pH 4.0-6.0) with pH adjustment; conditions: for S: solubility: with pH adjustment; for pH before adjustment (in brackets): 24 hours
Procedure: In details, ˜5 mg of solids were suspended into 1 mL of each medium with dosing conc. at ˜5 mg/mL. Additional solids were added into the sample to generate suspension if clear solution was obtained. The suspension was equilibrated via stirring (1000 rpm) for 24 hours. The pH of the suspension was adjusted when the final pH shifted above 0.3, and the samples were stirred for another 1.5 hours after pH adjustment. The suspension was centrifuged to obtain precipitate and supernatants. Solubility, purity and pH were tested for the supernatants after filtration, and isolated precipitate was tested by XRPD.
(§1) • 1. pH=3.0 buffer (50 mM HCl+KCl): Weigh 365.39 mg KCl into a 100 mL volumetric flask (VF), and add 0.1 mL 1M HCl into the VF, and dilute to volume with water. • 2. pH=4.0 buffer (50 mM citrate): Weigh 56.74 mg citric acid and 60.18 mg trisodium citrate into a 10 mL volumetric flask, and dilute to volume with water. • 3. pH=5.0 buffer (50 mM citrate) Weigh 11.12 mg citric acid and 95.38 mg trisodium citrate into a 10 mL volumetric flask, and dilute to volume with water. • 4. pH=6.0 buffer (50 mM citrate) Weigh 11.04 mg citric acid and 130.2 mg trisodium citrate into a 10 mL volumetric flask, and dilute to volume with water. • 5. pH=6.0 buffer (50 mM phosphate) Weigh 8.7 mg Na2HPO4 and 52.6 mg NaH2PO4 into a 10 mL volumetric flask, and dilute to volume with water. • 6. pH=7.0 buffer (50 mM phosphate) Weigh 23.47 mg Na2HPO4 and 43.34 mg NaH2PO4into a 10 mL volumetric flask, and dilute to volume with water. • 7. pH=8.0 buffer (50 mM phosphate) Weigh 31.64 mg Na2HPO4 and 67.18 mg NaH2PO4into a 10 mL volumetric flask, and dilute to volume with water.

[4] = Equilibrium solubility in pH buffers (3.0-8.0), 20% captisol and water; conditions: 24 hrs; for S: solubility: RT
Procedure: Additional solids were added into the sample to generate suspension if clear solution obtained. The suspension was equilibrated via stirring (1000 rpm). The suspension was centrifuged to obtain precipitate and supernatants.
Solubility and pH were tested for the supernatants after filtration, and isolated precipitate was tested by XRPD.
as §1

[5] = pH = 4.0 buffer (50 mM citrate)
[6] = pH = 4.0 buffer (50 mM citrate), RT
[7] = pH = 5.0 buffer (50 mM citrate)
[8] = pH = 5.0 buffer (50 mM citrate), RT
[9] = pH = 6.0 buffer (50 mM citrate)
[10] = pH = 6.0 buffer (50 mM citrate), RT
[11] = pH = 6.0 buffer (50 mM phosphate)
[12] = pH = 6.0 buffer (50 mM phosphate), RT
[13] = pH = 3.0 buffer (50 mM HCl + KCl)
[14] = pH = 7.0 buffer (50 mM phosphate)
[15] = pH = 8.0 buffer (50 mM phosphate)

CC(=O)NCC1CCN(Cc2cc(Oc3ccc(N4CCN(CCC(=O)O)CC4)nc3)nc(-c3cc(Cl)cc(Cl)c3)c2)CC1 [Fumarate Type A]
crystallinity after grinding (XRPD) [1]: decreased after grinding
Moisture Uptake (DVS) ([2]; from 30% RH to 80% RH): 2.5 (from 30% RH to 80% RH)
form change after DVS test (XRPD) [2]: crystallinity of fumarate Type A decreased
Area % (purity of supernatant) [3, 5]: 99.3 Area %
FC: form change (XRPD of precipitate) [3, 5]: 4 (3/4/6/7/8: new Form 3/4/6/7/8)
pH (final, after adjustment where adjusted) [3, 5]: 4.0
S: solubility [3, 6]: 3040 µg/mL
Area % (purity of supernatant) [3, 7]: 99.4 Area %
FC: form change (XRPD of precipitate) [3, 7]: 4 (3/4/6/7/8: new Form 3/4/6/7/8)
pH (final, after adjustment where adjusted) [3, 7]: 4.9*
pH before adjustment (in brackets) [3, 7]: (4.1)
S: solubility [3, 8]: 19300 µg/mL
Area % (purity of supernatant) [3, 9]: 98.6 Area %
FC: form change (XRPD of precipitate) [3, 9]: 7 (3/4/6/7/8: new Form 3/4/6/7/8)
pH (final, after adjustment where adjusted) [3, 9]: 6.1*
pH before adjustment (in brackets) [3, 9]: (5.0)
S: solubility [3, 10]: 240 µg/mL
Area % (purity of supernatant) [3, 11]: 95.6 Area %
pH (final, after adjustment where adjusted) [3, 11]: 6.2*
pH before adjustment (in brackets) [3, 11]: (4.6)
S: solubility [3, 12]: 90 µg/mL
pH of supernatant (final pH) ([4]; 20% Captisol (pH = 5.0, w/v)): 4.3
S: solubility ([4]; 20% Captisol (pH = 5.0, w/v)): 29.6 mg/mL
FC: form change (XRPD of precipitate) ([4]; H2O): 4 (1/2/3/4/5: new Form 1/2/3/4/5)
pH of supernatant (final pH) ([4]; H2O): 3.8
S: solubility ([4]; H2O): 1.85 mg/mL
FC: form change (XRPD of precipitate) [4, 13]: 5 (1/2/3/4/5: new Form 1/2/3/4/5)
pH of supernatant (final pH) [4, 13]: 3.5
S: solubility [4, 13]: 0.65 mg/mL
FC: form change (XRPD of precipitate) [4, 5]: 4 (1/2/3/4/5: new Form 1/2/3/4/5)
pH of supernatant (final pH) [4, 5]: 4.1
S: solubility [4, 5]: 3.45* mg/mL
FC: form change (XRPD of precipitate) [4, 7]: 4 (1/2/3/4/5: new Form 1/2/3/4/5)
pH of supernatant (final pH) [4, 7]: 4.8
S: solubility [4, 7]: 7.79 mg/mL
FC: form change (XRPD of precipitate) [4, 9]: 4 (1/2/3/4/5: new Form 1/2/3/4/5)
pH of supernatant (final pH) [4, 9]: 5.1
S: solubility [4, 9]: 20.6 mg/mL
pH of supernatant (final pH) [4, 14]: 6.6
S: solubility [4, 14]: 0.05 mg/mL
pH of supernatant (final pH) [4, 15]: 7.2
S: solubility [4, 15]: 0.02 mg/mL

CC(=O)NCC1CCN(Cc2cc(Oc3ccc(N4CCN(CCC(=O)O)CC4)nc3)nc(-c3cc(Cl)cc(Cl)c3)c2)CC1 [HCl salt Type F]
crystallinity after grinding (XRPD) [1]: decreased after grinding
Moisture Uptake (DVS) ([2]; from 20% RH to 80% RH): 1.4 (from 20% RH to 80% RH)
form change after DVS test (XRPD) [2]: No form change
solubility at 24 h ([3]; 50 mM pH 4.0-6.0 buffers, pH 4, aqueous buffer, thermodynamic from solid, 50 mM pH 4.0-6.0 buffers with pH adjustment, RT, read-out: solubility in pH buffers (overall bound)): < 6800 µg/mL
Area % (purity of supernatant) [3, 5]: 99.0 Area %
FC: form change (XRPD of precipitate) [3, 5]: Low (Low; low crystallinity)
pH (final, after adjustment where adjusted) [3, 5]: 4.0
S: solubility [3, 6]: 1520 µg/mL
Area % (purity of supernatant) [3, 7]: 99.6 Area %
FC: form change (XRPD of precipitate) [3, 7]: Low (Low; low crystallinity)
pH (final, after adjustment where adjusted) [3, 7]: 4.9
S: solubility [3, 8]: 2320 µg/mL
Area % (purity of supernatant) [3, 9]: 99.0 Area %
FC: form change (XRPD of precipitate) [3, 9]: 8 (3/4/6/7/8: new Form 3/4/6/7/8)
pH (final, after adjustment where adjusted) [3, 9]: 5.7
S: solubility [3, 10]: 1150 µg/mL
Area % (purity of supernatant) [3, 11]: 98.9 Area %
FC: form change (XRPD of precipitate) [3, 11]: Low (Low; low crystallinity)
pH (final, after adjustment where adjusted) [3, 11]: 5.9*
pH before adjustment (in brackets) [3, 11]: (3.9)
S: solubility [3, 12]: 430 µg/mL
solubility at 24 h ([4]; 50 mM pH buffers, pH 3.0-8.0, 21 °C, pH 3, aqueous buffer, thermodynamic from solid, 50 mM pH buffers pH 3.0-8.0, RT, read-out: solubility in pH buffers (overall bound)): < 8000 µg/mL
pH of supernatant (final pH) ([4]; 20% Captisol (pH = 5.0, w/v)): 3.5
S: solubility ([4]; 20% Captisol (pH = 5.0, w/v)): >48.0^1 mg/mL
FC: form change (XRPD of precipitate) ([4]; H2O): 5 (1/2/3/4/5: new Form 1/2/3/4/5)
pH of supernatant (final pH) ([4]; H2O): 2.4
S: solubility ([4]; H2O): 4.24 mg/mL
FC: form change (XRPD of precipitate) [4, 13]: 5 (1/2/3/4/5: new Form 1/2/3/4/5)
pH of supernatant (final pH) [4, 13]: 2.7
S: solubility [4, 13]: 2.77 mg/mL
FC: form change (XRPD of precipitate) [4, 5]: Low (Low: low crystallinity)
pH of supernatant (final pH) [4, 5]: 3.9
S: solubility [4, 5]: 1.12 mg/mL
FC: form change (XRPD of precipitate) [4, 7]: Low (Low: low crystallinity)
pH of supernatant (final pH) [4, 7]: 5.0
S: solubility [4, 7]: 2.64 mg/mL
FC: form change (XRPD of precipitate) [4, 9]: A^
pH of supernatant (final pH) [4, 9]: 5.8
S: solubility [4, 9]: 0.62 mg/mL
FC: form change (XRPD of precipitate) [4, 14]: A^+
pH of supernatant (final pH) [4, 14]: 6.5
S: solubility [4, 14]: 0.06 mg/mL
FC: form change (XRPD of precipitate) [4, 15]: A^+
pH of supernatant (final pH) [4, 15]: 7.2
S: solubility [4, 15]: 0.02 mg/mL
